According to PMC12090809 (Journal of Virology, 2025):

Assays:
[1] = test system: Env expressed on CH058TF-infected cells; test: Binding of anti-CoRBS mAb 17b to CH058TF-infected cells after incubation with plasma from BNM-III-170-treated uninfected RMs (FACS); type: cell-based, HIV-1
Method: Next, we assessed the ability of the plasma collected from uninfected RMs at various timepoints following BNM-III-170 administration to induce conformational changes in Env expressed on the surface of HIV-1-infected cells. Briefly, plasma was incubated with cells infected with the transmitted/founder virus CH058 (CH058TF) and the binding of the Alexa-Fluor-647-conjugated anti-CoRBS mAb 17b (whose epitope is not exposed on the “closed” Env conformation) to Env expressed on infected cells was measured by FACS (Fig. 1B).
To evaluate the functional activity of bioavailable BNM-III-170 in plasma, the plasma from uninfected RMs treated with BNM-III-170 was used to modulate Env conformation at the surface of infected cells. Briefly, 2 days post-infection, CEM.NKr cells infected with CH058TF were incubated with plasma from RMs (1:10 dilution), the Alexa-Fluor 647-conjugated 17b (5 µg/mL), and the AquaVivid viability dye at 37°C for 45 min. As a positive control, infected cells were incubated with 50 µM of BNM-III-170. Infected cells were then identified based on HIV-1 p24 detection as described above.

[2] = in vivo, 12 mg/kg
Method: BNM-III-170 levels in plasma from rhesus macaque were determined by high-performance liquid chromatography-tandem mass spectrometry (HPLC-MS/MS). Briefly, BNM-III-170 was extracted from plasma using protein precipitation. A Thermo Scientific TSQ Quantiva triple quadrupole mass spectrometer was interfaced with the Thermo Scientific Ultimate 3000XRS UHPLC system using a heated electrospray ion source (HESI). MS detection was performed in positive ion mode, using multiple reaction monitoring (MRM). The precursor-ion reactions for BNM-III-170 and IS were set to 447.3 → [226.1 + 357.1] and 262.0 → 139.1, respectively. Chromatographic separation was achieved on a Thermo Scientific Accucore RP-MS analytical column (100 × 2.1 mm I.D., 2.6 mm) maintained at 40°C using isocratic elution, which consisted of acetonitrile and 10 mM ammonium formate in water (pH 3.0) at a ratio of 20:80, respectively. The flow rate was fixed at 300 µL/min. Acquisition and analysis of data were conducted using the Xcalibur 4.0 software. Each calibration curve was comprised of a double blank (matrix without analyte or internal standard), zero standard, and eight calibration points. Calibration curves were computed from the equation y = ax + b, based on the weight of the calibration lines created from the peak-area ratios of the drug relative to the internal standard.

[3] = test system: CH058TF-infected CEM.NKr cells; type: cell-based, HIV-1; details: 50 μM added BNM-III-170 vs absence
Method: Cell surface staining was performed at 48 h post-infection. Mock-infected or HIV-1-infected CEM.NKr or primary CD4+ T cells were incubated for 45 min at 37°C with anti-Env mAbs (5 µg/mL), plasma from PWH (1:1,000 dilution), or plasma from infected RMs (1:500). When indicated, antibody/plasma incubation was done in the presence of 50 µM of BNM-III-170, or equivalent amounts of DMSO. To evaluate the capacity of plasma from SHIV-AD8-EO-infected RMs treated with BNM-III-170 to recognize HIV-1-infected cells, a 1:10 plasma dilution was used. Cells were then washed twice with PBS and stained with the appropriate Alexa Fluor 647-conjugated secondary antibody (2 µg/mL) for 20 min and the viability dye AquaVivid (Thermo Fisher Scientific) at room temperature. Cells were then washed twice with PBS and fixed in a 2% PBS-formaldehyde solution. […]
Measurement of ADCC using the FACS-based assay was performed at 48 h post-infection, as previously described. […] The percentage of ADCC was calculated with the following formula: (% of p24+/p27+ cells in Targets plus Effectors) − (% of p24+/p27+ cells in Targets plus Effectors plus Abs) / (% of p24+/p27+ cells in Targets) by gating on infected live target cells.

[4] = test system: CEM.NKr-CCR5-sLTR-Luc cells infected with SHIV AD8-EO; type: cell-based
[5] = test system: SHIV AD8-EO; test: Viral infectivity / neutralization assay in TZM-bl cells with SHIV variants; details: virus incubated with BNM-III-170 (Fig. 2A)
Method: The viral neutralization assay was done as previously described ([56]). Briefly, TZM-bl target cells were seeded at a density of 1 × 10^4 cells/well in 96-well luminometer-compatible tissue culture plates (Perkin-Elmer Life Sciences, Waltham, MA) 24 h before infection. Then, 100 µL portions of recombinant viruses was incubated with the indicated amount of mAbs, plasma, BNM-III-170, or a mixture of mAbs and BNM-III-170 for 1 h at 37°C and then added to the target cells. After incubation for 48 h at 37°C, the medium was removed from each well, and the cells were lysed by the addition of 30 µL of passive lysis buffer (Promega) and three freeze-thaw cycles. An LB 941 TriStar luminometer (Berthold Technologies) was used to measure the luciferase activity in each well after the addition of 100 µL of luciferin buffer (15 mM MgSO4, 15 mM KPO4 [pH 7.8], 1 mM ATP, and 1 mM dithiothreitol) and 50 µL of 1 mM D-luciferin potassium salt (Prolume).

With CNCc1ccc2c(c1)C[C@H](CN=C(N)N)[C@H]2NC(=O)C(=O)Nc1ccc(Cl)c(F)c1.O=C(O)C(F)(F)F.O=C(O)C(F)(F)F [BNM-III-170] the “association between 17b binding and BNM-III-170 plasma concentrations” value ([1]; each dose and all combined doses, Spearman correlation) was “positive correlation”, the “effect on 17b binding to CH058TF-infected cells” value ([1]; plasma from uninfected RMs, all tested doses (3–36 mg/kg SQ)) was “consistently shown to increase 17b binding” and the “duration of residual 17b activity” value ([1]; plasma from uninfected RMs, highest tested dose (36 mg/kg SQ)) was “up to 8 h”. The Cmax [2] was 15300 ng/mL, the “ADCC activity of Abs in 0 h RM plasma against infected cells” value [3] was “significantly increased” and the “binding of Abs in 0 h RM plasma to infected cells” value [3] was “significantly increased”. The “binding of plasma from PWH to infected cells” value [4] was “enhance binding of plasma from PWH” and the “effect on SHIV AD8-EO infectivity” value [5] was “directly decrease SHIV AD8-EO infectivity”.
